From patent US20100075907A1, “NEUROMEDIN U RECEPTOR AGONISTS AND USES THEREOF” (priority 2006, published 2010)
Non-standard residues stand in square brackets, D forms with d. Residues, ends and D or L forms follow the SMILES beside them. No end group written: not given here. *: point of attachment. Succinimide(1-Et,3-yl) = CCN1C(=O)CC(*)C1=O; hArg = N=C(N)NCCCC[C@H](N)C(=O)O; dNle = CCCC[C@@H](N)C(=O)O

Target: T1, hNMUR1 (Homo sapiens, UniProt Q9HB89)
T1 sequence (Q9HB89 1-426): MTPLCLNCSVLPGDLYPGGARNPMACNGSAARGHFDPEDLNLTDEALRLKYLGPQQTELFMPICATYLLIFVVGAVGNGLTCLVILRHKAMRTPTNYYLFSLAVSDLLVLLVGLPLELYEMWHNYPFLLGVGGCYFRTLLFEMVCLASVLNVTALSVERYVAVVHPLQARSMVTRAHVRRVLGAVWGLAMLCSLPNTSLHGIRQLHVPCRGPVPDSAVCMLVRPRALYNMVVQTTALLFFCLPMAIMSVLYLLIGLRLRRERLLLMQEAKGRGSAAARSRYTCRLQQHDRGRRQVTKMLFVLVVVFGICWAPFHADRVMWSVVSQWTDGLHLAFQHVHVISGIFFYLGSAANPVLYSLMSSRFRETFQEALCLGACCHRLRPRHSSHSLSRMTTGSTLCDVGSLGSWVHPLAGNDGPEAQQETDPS
Experiment: 125I-hNMU-25 binding assay, human NMUR1 membranes
Design: expressed in transfected cells; host or cells: HEK-293 FLP-In cells (pcDNA5); HEK-293/aeq17 lines (pIRES-puro) were also made; % inhibition of NMU-25 binding / % Activity: concentration or dose not given beside the values
Procedure: Confluent cell monolayers expressing NMU receptors (the HEK cells described above) were harvested with phosphate buffered saline, collected by centrifugation, and resuspended in membrane buffer (50 mM TrisCl pH 7.4, 5 mM MgCl2, 1× Protease Inhibitor Cocktail, 10 μM phosphoramidon). After the cell pellet was homogenized, the solution was centrifuged at 18,000 rpm for 20 minutes at 4° C. The pellet was resuspended in membrane buffer to yield a final concentration of 0.5-5 μg/μL of membrane and stored at −80° C.
Experiments were performed in assay buffer (25 mM TrisCl, pH 7.4, 10 mM MgCl2, 2 mM EDTA, 1× Protease Inhibitor Cocktail, 100 μg/mL Bacitricin, 10 μM phosphoramidon) in 200 μL volumes in a 96-well format using 2-5 μg of membrane and 0.1 nM ^125I-hNMU-25 (about 12,000 cpm/well). For non-specific binding, 1 μM hNMU-25 was added. About 5 μL of peptides were added to measure antagonist activity, and the entire reaction was incubated at room temperature with shaking for 80 minutes. The reaction was terminated by rapid filtration through 0.3% poly-ethylenimine presoaked Millipore 96-well filter plates and washed with ice-cold buffer (5 mM TrisCl pH 7.4, 10 mM MgCl2, 2.5 mM EDTA, 0.04% Triton X-100). Plates were air-dried overnight at room temperature and recovered radioactivity was determined by standard scintillation counting. IC50 values were determined using GraphPad Prism software.
Concentration-response curves and radioligand-binding data were fitted using Prism (GraphPad Software). Results are summarized below in Tables 8 and 9.

[1] = Table 8, HEK-hR1, second (binding) column pair

CC(C)C[C@@H](NC(=O)[C@H](Cc1ccccc1)NC(=O)[C@@H](N)Cc1ccc(O)cc1)C(=O)N[C@@H](Cc1c[nH]c2ccccc12)C(=O)N[C@@H](CCCNC(=N)N)C(=O)N1CCC[C@H]1C(=O)N[C@@H](CCCNC(=N)N)C(=O)N[C@@H](CC(N)=O)C(N)=O [Agonist B, YF-(D-L)-WRPRN-CONH2] (H-YF[dL]WRPRN-NH2)
% Activity (Table 8, HEK-hR1, binding): 96%

C[C@@H](NC(=O)[C@H](Cc1ccccc1)NC(=O)[C@@H](N)Cc1ccc(O)cc1)C(=O)N[C@@H](Cc1c[nH]c2ccccc12)C(=O)N[C@@H](CCCNC(=N)N)C(=O)N1CCC[C@H]1C(=O)N[C@@H](CCCNC(=N)N)C(=O)N[C@@H](CC(N)=O)C(N)=O [Agonist D, YF-(D-A)-WRPRN-CONH2] (H-YF[dA]WRPRN-NH2; N-terminus assumed)
% Activity (Table 8, HEK-hR1, binding): 100%

CC(=O)N[C@@H](Cc1ccccc1)C(=O)N[C@H](CC(C)C)C(=O)N[C@@H](Cc1c[nH]c2ccccc12)C(=O)N[C@@H](CCCNC(=N)N)C(=O)N1CCC[C@H]1C(=O)N[C@@H](CCCNC(=N)N)C(=O)N[C@@H](CC(N)=O)C(N)=O [Agonist E, Ac-F-(D-L)-WRPRN-CONH2] (Ac-F[dL]WRPRN-NH2)
% Activity (Table 8, HEK-hR1, binding): 93%

CC(C)C[C@@H](NC(=O)[C@H](Cc1ccccc1)NC(=O)[C@H](Cc1ccc(O)cc1)NC(=O)CNC(=O)[C@H](CCCNC(=N)N)NC(=O)[C@H](CO)NC(=O)[C@H](CCC(N)=O)NC(=O)[C@H](CO)NC(=O)[C@H](C)NC(=O)[C@H](Cc1ccccc1)NC(=O)[C@@H]1CCCN1C(=O)[C@H](CO)NC(=O)[C@H](CCC(N)=O)NC(=O)[C@H](Cc1ccccc1)NC(=O)[C@H](CCC(=O)O)NC(=O)[C@H](CCC(=O)O)NC(=O)[C@H](CC(=O)O)NC(=O)[C@@H](NC(=O)[C@H](CCCNC(=N)N)NC(=O)[C@@H](N)Cc1ccccc1)C(C)C)C(=O)N[C@@H](Cc1c[nH]c2ccccc12)C(=O)N[C@@H](CCCNC(=N)N)C(=O)N1CCC[C@H]1C(=O)N[C@@H](CCCNC(=N)N)C(=O)N[C@@H](CC(N)=O)C(N)=O [Agonist H] (H-FRVDEEFQSPFASQSRGYF[dL]WRPRN-NH2; N-terminus assumed)
% Activity (Table 8, HEK-hR1, binding): 93% | IC50 (binding, human R1): 0.0011 µM | % inhibition of NMU-25 binding (human R1): 93%

CC(C)C[C@H](NC(=O)[C@H](Cc1c[nH]c2ccccc12)NC(=O)[C@@H](N)Cc1ccccc1)C(=O)N[C@@H](Cc1ccccc1)C(=O)N[C@@H](CCCNC(=N)N)C(=O)N1CCC[C@H]1C(=O)N[C@@H](CCCCNC(=N)N)C(=O)N[C@@H](CC(N)=O)C(N)=O [Agonist I, FWLFRP-(Harg)-N-CONH2] (H-FWLFRP[hArg]N-NH2)
% Activity (Table 9, HEK-hR1, binding): 23% | IC50 (Table 9, HEK-hR1, binding): > 1 µM

CC(C)C[C@H](NC(=O)[C@H](Cc1c[nH]c2ccccc12)NC(=O)[C@@H](N)Cc1ccccc1)C(=O)N[C@@H](Cc1ccccc1)C(=O)N[C@@H](CCCNC(=N)N)C(=O)N[C@@H](C)C(=O)N[C@@H](CCCCNC(=N)N)C(=O)N[C@@H](CC(N)=O)C(N)=O [Agonist J, FWLFRA-(Harg)-N-CONH2] (H-FWLFRA[hArg]N-NH2)
% Activity (Table 9, HEK-hR1, binding): 34% | IC50 (Table 9, HEK-hR1, binding): > 1 µM

CCCC[C@@H](NC(=O)[C@H](CCCNC(=N)N)NC(=O)[C@H](C)NC(=O)[C@H](CCCNC(=N)N)NC(=O)[C@H](Cc1ccccc1)NC(=O)[C@H](CC(C)C)NC(=O)[C@H](Cc1ccccc1)NC(=O)[C@@H](N)Cc1c[nH]c2ccccc12)C(N)=O [Agonist K, WFLFRAR-(D-Nle)-CONH2] (H-WFLFRAR[dNle]-NH2)
% Activity (Table 9, HEK-hR1, binding): 25% | IC50 (Table 9, HEK-hR1, binding): > 1 µM

CC(C)C[C@H](NC(=O)[C@H](Cc1c[nH]c2ccccc12)NC(=O)[C@H](Cc1ccccc1)NC(=O)CNC(=O)[C@H](CCCNC(=N)N)NC(=O)[C@H](CO)NC(=O)[C@H](CCC(N)=O)NC(=O)[C@H](CO)NC(=O)[C@H](C)NC(=O)[C@H](Cc1ccccc1)NC(=O)[C@@H]1CCCN1C(=O)[C@H](CO)NC(=O)[C@H](CCC(N)=O)NC(=O)[C@H](Cc1ccccc1)NC(=O)[C@H](CCC(=O)O)NC(=O)[C@H](CCC(=O)O)NC(=O)[C@H](CC(=O)O)NC(=O)[C@@H](NC(=O)[C@H](CCCNC(=N)N)NC(=O)[C@@H](N)Cc1ccccc1)C(C)C)C(=O)N[C@@H](Cc1ccccc1)C(=O)N[C@@H](CCCNC(=N)N)C(=O)N1CCC[C@H]1C(=O)N[C@@H](CCCCNC(=N)N)C(=O)N[C@@H](CC(N)=O)C(N)=O [Agonist O] (H-FRVDEEFQSPFASQSRGFWLFRP[hArg]N-NH2; N-terminus assumed)
% Activity (Table 9, HEK-hR1, binding): 64% | IC50 (Table 9, HEK-hR1, binding): 0.4 µM

CC(C)C[C@H](NC(=O)[C@H](Cc1c[nH]c2ccccc12)NC(=O)[C@H](Cc1ccccc1)NC(=O)CNC(=O)[C@H](CCCNC(=N)N)NC(=O)[C@H](CO)NC(=O)[C@H](CCC(N)=O)NC(=O)[C@H](CO)NC(=O)[C@H](C)NC(=O)[C@H](Cc1ccccc1)NC(=O)[C@@H]1CCCN1C(=O)[C@H](CO)NC(=O)[C@H](CCC(N)=O)NC(=O)[C@H](Cc1ccccc1)NC(=O)[C@H](CCC(=O)O)NC(=O)[C@H](CCC(=O)O)NC(=O)[C@H](CC(=O)O)NC(=O)[C@@H](NC(=O)[C@H](CCCNC(=N)N)NC(=O)[C@@H](N)Cc1ccccc1)C(C)C)C(=O)N[C@@H](Cc1ccccc1)C(=O)N[C@@H](CCCNC(=N)N)C(=O)N[C@@H](C)C(=O)N[C@@H](CCCCNC(=N)N)C(=O)N[C@@H](CC(N)=O)C(N)=O [Agonist P] (H-FRVDEEFQSPFASQSRGFWLFRA[hArg]N-NH2; N-terminus assumed)
% Activity (Table 9, HEK-hR1, binding): 1% | IC50 (Table 9, HEK-hR1, binding): > 1 µM

CCCC[C@@H](NC(=O)[C@H](CCCNC(=N)N)NC(=O)[C@@H]1CCCN1C(=O)[C@H](CCCNC(=N)N)NC(=O)[C@H](Cc1ccccc1)NC(=O)[C@H](CC(C)C)NC(=O)[C@H](Cc1c[nH]c2ccccc12)NC(=O)[C@H](Cc1ccccc1)NC(=O)CNC(=O)[C@H](CCCNC(=N)N)NC(=O)[C@H](CO)NC(=O)[C@H](CCC(N)=O)NC(=O)[C@H](CO)NC(=O)[C@H](C)NC(=O)[C@H](Cc1ccccc1)NC(=O)[C@@H]1CCCN1C(=O)[C@H](CO)NC(=O)[C@H](CCC(N)=O)NC(=O)[C@H](Cc1ccccc1)NC(=O)[C@H](CCC(=O)O)NC(=O)[C@H](CCC(=O)O)NC(=O)[C@H](CC(=O)O)NC(=O)[C@@H](NC(=O)[C@H](CCCNC(=N)N)NC(=O)[C@@H](N)Cc1ccccc1)C(C)C)C(N)=O [Agonist Q] (H-FRVDEEFQSPFASQSRGFWLFRPR[dNle]-NH2)
% Activity (Table 9, HEK-hR1, binding): 16% | IC50 (Table 9, HEK-hR1, binding): > 1 µM

CCN1C(=O)CC(SC[C@H](NC(C)=O)C(=O)N[C@@H](Cc2ccccc2)C(=O)N[C@@H](CCCNC(=N)N)C(=O)N[C@H](C(=O)N[C@@H](CC(=O)O)C(=O)N[C@@H](CCC(=O)O)C(=O)N[C@@H](CCC(=O)O)C(=O)N[C@@H](Cc2ccccc2)C(=O)N[C@@H](CCC(N)=O)C(=O)N[C@@H](CO)C(=O)N2CCC[C@H]2C(=O)N[C@@H](Cc2ccccc2)C(=O)N[C@@H](C)C(=O)N[C@@H](CO)C(=O)N[C@@H](CCC(N)=O)C(=O)N[C@@H](CO)C(=O)N[C@@H](CCCNC(=N)N)C(=O)NCC(=O)N[C@@H](Cc2ccc(O)cc2)C(=O)N[C@@H](Cc2ccccc2)C(=O)N[C@H](C)C(=O)N[C@@H](Cc2c[nH]c3ccccc23)C(=O)N[C@@H](CCCNC(=N)N)C(=O)N2CCC[C@H]2C(=O)N[C@@H](CCCNC(=N)N)C(=O)N[C@@H](CC(N)=O)C(N)=O)C(C)C)C1=O (stereo partly shown) [NMU13] (Ac-C(Succinimide(1-Et,3-yl))FRVDEEFQSPFASQSRGYF[dA]WRPRN-NH2)
% inhibition of NMU-25 binding (human R1): 100%

CC(C)C[C@H](NC(=O)[C@H](Cc1ccccc1)NC(=O)[C@@H](N)Cc1ccc(O)cc1)C(=O)N[C@@H](Cc1ccccc1)C(=O)N[C@@H](CCCNC(=N)N)C(=O)N1CCC[C@H]1C(=O)N[C@@H](CCCNC(=N)N)C(=O)N[C@@H](CC(N)=O)C(N)=O [NMU-8, reference compound]
% Activity (Table 9, HEK-hR1, binding): 100%

Ac-FFRPRN-NH2 [Agonist F, Ac-FFRPRN-CONH2]
% Activity (Table 8, HEK-hR1, binding): 30% | IC50 [1]: > 1 µM

FALFRPRN-NH2 [Agonist N]
% Activity (Table 9, HEK-hR1, binding): 38.4% | IC50 (Table 9, HEK-hR1, binding): > 1 µM

H-FRVDEEFQSPFASQSRGYFLFRPRN-NH2 [hNMU-25, reference compound]
% Activity (Table 9, HEK-hR1, binding): 100% | IC50 (binding, human R1): 0.00014 µM

H-FRVDEEFQSPFASQSRGYFWRPRN-NH2 [Agonist G]
% Activity (Table 8, HEK-hR1, binding): 97%

H-FWLFRARN-NH2 [Agonist L]
% Activity (Table 9, HEK-hR1, binding): 0% | IC50 (Table 9, HEK-hR1, binding): > 1 µM

H-YFGWRPRN-NH2 [Agonist C]
% Activity (Table 8, HEK-hR1, binding): 100%

WALFRARN-NH2 [Agonist M]
% Activity (Table 9, HEK-hR1, binding): 0% | IC50 (Table 9, HEK-hR1, binding): > 1 µM

YFWRPRN-NH2 [Agonist A, YFWRPRN-CONH2]
% Activity (Table 8, HEK-hR1, binding): 94% | IC50 [1]: 0.01 µM
